From patent US11643391B2, “Prodrugs and conjugates of dimethyltryptamine” (priority 2021, dated 2023)

Legend:
[1] = Stability in SGF without pepsin; format: physicochemical
Stability in PBS pH 6.5 = conditions: for half-life: PBS, pH 6.5, T½
physchem = conditions: buffer, pH 6.5
[2] = Stability in SGF with pepsin; format: physicochemical
[3] = Stability in Mouse Plasma; format: in vitro ADME; conditions: for half-life: mouse, plasma
[4] = Table 8, if calculated T½ < 0, T½ reported as 9999 min

CC(OC(=O)n1cc(CCN(C)C)c2ccccc21)OC(=O)C(C)(C)C (racemic) [VLS-03-15]
Peak Area of MRM: 205.0/159.8 (analyte VLS-03-15 Parent) ([1]; 0 min): 7.05E+05
Peak Area of MRM: 205.0/159.8 (analyte VLS-03-15 Parent) ([1]; 30 min): 6.94E+05
Peak Area of MRM: 205.0/159.8 (analyte VLS-03-15 Parent) ([1]; 60 min): 6.55E+05
Peak Area of MRM: 205.0/159.8 (analyte VLS-03-15 Parent) ([1]; 120 min): 7.09E+05
Peak Area of MRM: 205.0/159.8 (analyte VLS-03-15 Parent) ([1]; 240 min): 6.96E+05
Remaining Percentage ([1]; Table 8, 0 min): 100.00%
Remaining Percentage ([1]; Table 8, 30 min): 101.12%
Remaining Percentage ([1]; Table 8, 60 min): 103.35%
Remaining Percentage ([1]; Table 8, 120 min): 105.28%
Remaining Percentage ([1]; Table 8, 240 min): 97.98%
half-life [1, 4]: 5.44 days
Peak Area of MRM: 205.0/159.8 (analyte VLS-03-15 Parent) ([1]; VLS-03-15 standard): 6.10E+05
Peak Area of MRM: 205.0/159.8 (analyte VLS-03-15 Parent) (Stability in PBS pH 6.5; 0 min): 6.56E+05
Peak Area of MRM: 205.0/159.8 (analyte VLS-03-15 Parent) (Stability in PBS pH 6.5; 30 min): 6.55E+05
Peak Area of MRM: 205.0/159.8 (analyte VLS-03-15 Parent) (Stability in PBS pH 6.5; 60 min): 6.28E+05
Peak Area of MRM: 205.0/159.8 (analyte VLS-03-15 Parent) (Stability in PBS pH 6.5; 120 min): 5.86E+05
Peak Area of MRM: 205.0/159.8 (analyte VLS-03-15 Parent) (Stability in PBS pH 6.5; 240 min): 5.51E+05
Remaining Percentage (Stability in PBS pH 6.5; Table 8, 0 min): 100.00%
Remaining Percentage (Stability in PBS pH 6.5; Table 8, 30 min): 96.93%
Remaining Percentage (Stability in PBS pH 6.5; Table 8, 60 min): 89.82%
Remaining Percentage (Stability in PBS pH 6.5; Table 8, 120 min): 89.44%
Remaining Percentage (Stability in PBS pH 6.5; Table 8, 240 min): 82.54%
Peak Area of MRM: 205.0/159.8 (analyte VLS-03-15 Parent) (Stability in PBS pH 6.5; VLS-03-15 standard): 6.74E+05
half-life (physchem): 922 min
Peak Area of MRM: 205.0/159.8 (analyte VLS-03-15 Parent) ([2]; 0 min): 6.75E+05
Peak Area of MRM: 205.0/159.8 (analyte VLS-03-15 Parent) ([2]; 30 min): 7.21E+05
Peak Area of MRM: 205.0/159.8 (analyte VLS-03-15 Parent) ([2]; 60 min): 7.26E+05
Peak Area of MRM: 205.0/159.8 (analyte VLS-03-15 Parent) ([2]; 120 min): 7.14E+05
Peak Area of MRM: 205.0/159.8 (analyte VLS-03-15 Parent) ([2]; 240 min): 7.15E+05
Remaining Percentage ([2]; Table 8, 0 min): 100.00%
Remaining Percentage ([2]; Table 8, 30 min): 97.29%
Remaining Percentage ([2]; Table 8, 60 min): 107.53%
Remaining Percentage ([2]; Table 8, 120 min): 103.18%
Remaining Percentage ([2]; Table 8, 240 min): 102.22%
T½ [2, 4]: 6.94375 days
Peak Area of MRM: 205.0/159.8 (analyte VLS-03-15 Parent) ([2]; VLS-03-15 standard): 6.26E+05
Remaining Percentage ([3]; Table 9, 0 min): 100.00%
Remaining Percentage ([3]; Table 9, 15 min): 0.00%
Remaining Percentage ([3]; Table 9, 30 min): 0.00%
Remaining Percentage ([3]; Table 9, 60 min): 0.00%
Remaining Percentage ([3]; Table 9, 120 min): 0.00%

O=C(O)CCCc1ccc(N(CCCl)CCCl)cc1 [Chlorambucil, reference compound]
half-life (Stability in PBS pH 6.5; [4]): 47.2 min
half-life (Stability in PBS pH 6.5; Table 10): 43.2 min
Remaining Percentage (Stability in PBS pH 6.5; Table 8, 0 min): 100.00%
Remaining Percentage (Stability in PBS pH 6.5; Table 8, 30 min): 64.51%
Remaining Percentage (Stability in PBS pH 6.5; Table 8, 60 min): 42.26%
Remaining Percentage (Stability in PBS pH 6.5; Table 8, 120 min): 16.83%
Remaining Percentage (Stability in PBS pH 6.5; Table 8, 240 min): 2.99%
Remaining Percentage (Stability in PBS pH 6.5; Table 10, 0 min): 100.00%
Remaining Percentage (Stability in PBS pH 6.5; Table 10, 30 min): 61.12%
Remaining Percentage (Stability in PBS pH 6.5; Table 10, 60 min): 43.17%
Remaining Percentage (Stability in PBS pH 6.5; Table 10, 120 min): 15.12%
Remaining Percentage (Stability in PBS pH 6.5; Table 10, 240 min): 2.15%

CCCCC(=O)Oc1cccc2ccn(CCN(C)C)c12 [VLS-03-1]
Peak Area of MRM: 205.0/159.8 (analyte VLS-03-1 Parent) ([1]; 0 min): 4.53E+04
Peak Area of MRM: 205.0/159.8 (analyte VLS-03-1 Parent) ([1]; 30 min): 4.75E+04
Peak Area of MRM: 205.0/159.8 (analyte VLS-03-1 Parent) ([1]; 60 min): 4.51E+04
Peak Area of MRM: 205.0/159.8 (analyte VLS-03-1 Parent) ([1]; 120 min): 4.66E+04
Peak Area of MRM: 205.0/159.8 (analyte VLS-03-1 Parent) ([1]; 240 min): 4.57E+04
Remaining Percentage ([1]; Table 8, 0 min): 100.00%
Remaining Percentage ([1]; Table 8, 30 min): 106.25%
Remaining Percentage ([1]; Table 8, 60 min): 99.72%
Remaining Percentage ([1]; Table 8, 120 min): 104.22%
Remaining Percentage ([1]; Table 8, 240 min): 103.22%
T½ [1, 4]: 6.94375 days
Peak Area of MRM: 205.0/159.8 (analyte VLS-03-1 Parent) ([1]; VLS-03-1 standard): 3.75E+04
Peak Area of MRM: 205.0/159.8 (analyte VLS-03-1 Parent) (Stability in PBS pH 6.5; 0 min): 5.04E+04
Peak Area of MRM: 205.0/159.8 (analyte VLS-03-1 Parent) (Stability in PBS pH 6.5; 30 min): 4.71E+04
Peak Area of MRM: 205.0/159.8 (analyte VLS-03-1 Parent) (Stability in PBS pH 6.5; 60 min): 4.71E+04
Peak Area of MRM: 205.0/159.8 (analyte VLS-03-1 Parent) (Stability in PBS pH 6.5; 120 min): 4.86E+04
Peak Area of MRM: 205.0/159.8 (analyte VLS-03-1 Parent) (Stability in PBS pH 6.5; 240 min): 4.75E+04
Remaining Percentage (Stability in PBS pH 6.5; Table 8, 0 min): 100.00%
Remaining Percentage (Stability in PBS pH 6.5; Table 8, 30 min): 96.32%
Remaining Percentage (Stability in PBS pH 6.5; Table 8, 60 min): 99.71%
Remaining Percentage (Stability in PBS pH 6.5; Table 8, 120 min): 100.03%
Remaining Percentage (Stability in PBS pH 6.5; Table 8, 240 min): 101.35%
T½ (Stability in PBS pH 6.5; [4]): 6.94375 days
Peak Area of MRM: 205.0/159.8 (analyte VLS-03-1 Parent) (Stability in PBS pH 6.5; VLS-03-1 standard): 4.49E+04
Peak Area of MRM: 205.0/159.8 (analyte VLS-03-1 Parent) ([2]; 0 min): 5.72E+04
Peak Area of MRM: 205.0/159.8 (analyte VLS-03-1 Parent) ([2]; 30 min): 5.37E+04
Peak Area of MRM: 205.0/159.8 (analyte VLS-03-1 Parent) ([2]; 60 min): 5.01E+04
Peak Area of MRM: 205.0/159.8 (analyte VLS-03-1 Parent) ([2]; 120 min): 5.48E+04
Peak Area of MRM: 205.0/159.8 (analyte VLS-03-1 Parent) ([2]; 240 min): 5.27E+04
Remaining Percentage ([2]; Table 8, 0 min): 100.00%
Remaining Percentage ([2]; Table 8, 30 min): 101.74%
Remaining Percentage ([2]; Table 8, 60 min): 90.49%
Remaining Percentage ([2]; Table 8, 120 min): 102.16%
Remaining Percentage ([2]; Table 8, 240 min): 96.47%
half-life [2, 4]: 6.22 days
Peak Area of MRM: 205.0/159.8 (analyte VLS-03-1 Parent) ([2]; VLS-03-1 standard): 4.22E+04
Remaining Percentage ([3]; Table 9, 0 min): 100.00%
Remaining Percentage ([3]; Table 9, 15 min): 0.00%
Remaining Percentage ([3]; Table 9, 30 min): 0.00%
Remaining Percentage ([3]; Table 9, 60 min): 0.00%
Remaining Percentage ([3]; Table 9, 120 min): 0.00%

CC(C)[N+](C)(CCOC(=O)C1c2ccccc2Oc2ccccc21)C(C)C [Propantheline, reference compound]
Remaining Percentage ([3]; Table 9, 0 min): 100.00%
Remaining Percentage ([3]; Table 9, 15 min): 85.78%
Remaining Percentage ([3]; Table 9, 30 min): 70.74%
Remaining Percentage ([3]; Table 9, 60 min): 29.46%
Remaining Percentage ([3]; Table 9, 120 min): 8.74%
Remaining Percentage ([3]; Table 11, 0 min): 100.00%
Remaining Percentage ([3]; Table 11, 15 min): 80.81%
Remaining Percentage ([3]; Table 11, 30 min): 64.04%
Remaining Percentage ([3]; Table 11, 60 min): 34.86%
Remaining Percentage ([3]; Table 11, 120 min): 9.05%
half-life ([3]; Table 9, read-out: T½): 32.6 min
half-life ([3]; Table 11, read-out: T½): 34.1 min
